From patent US20190136302A1, “METHODS FOR DETECTING OLIGONUCLEOTIDES IN A SAMPLE” (THE REGENTS OF THE UNIVERSITY OF CALIFORNIA, priority 2016, published 2019)

Legend:
Capture PRLR SMO oligo = experiment: ELOSA competition with PRLR SMO capture oligonucleotide and HRP-PRLR SMO; format: binding, mouse; conditions: for hybridization to Capture PRLR SMO / displacement of HRP-PRLR SMO (absorbance): PRLR SMO capture oligonucleotide at increasing concentrations, mouse sequences
Method: (§1) The capture reagent was synthesized using a sequence antisense to the test oligonucleotide, along with an amino-terminus and a 12 carbon aliphatic spacer. The amino-terminus allows binding to the wells of a 96-well, polystyrene DNA-binding plate and the spacer minimizes steric hindrance during hybridization of the test oligonucleotides. The capture reagent (2 picomoles/well) was incubated in 100 μl 0.05M phosphate (pH 8.5) —1 mM EDTA at 4° C. for 24 h or longer.
(§2) After washing (3 times with 0.05M TrisHCl (pH 8)—1 mM EDTA), the plate was blocked to reduce non-specific binding (200 μl 3% bovine serum albumin—0.05M TrisHCl (pH 8)—1 mM EDTA at 37° C. for 4 h).
(§3) After washing 3 times, the test oligo and a constant concentration of horseradish peroxidase-labeled oligonucleotide (i.e., the competition oligonucleotide with a sequence the same as test oligo) was incubated with the capture reagent. The amount of competition oligonucleotide hybridized to the capture reagent is inversely proportional to the total amount of test oligonucleotide present. Incubations were in a total final volume of 100 μl in 0.05M TrisHCl (pH 7.5)—1 mM EDTA, with Test oligo (variable doses up to 1 pmole), constant HRP-Oligo (0.5-1 pmole), and a total serum volume of 10 to 25 μl. Incubations were at 37° C. for 15 h.
(§4) After washing 3 times with TBST, the competition oligonucleotide bound to the capture reagent was measured using 100 μl 0.1 mg/ml TMB—1% hydrogen peroxide. After color development, the reaction was stopped with 50 μl 1N H2SO4, and the amount of colored product was measured spectrophotometrically at A450.
For clarity, the PRLR SMO vivo-morpholino is referred to as Antimaia to distinguish it from the oligonucleotides being used for competition or capture, which are called HRP-PRLR SMO and capture PRLR SMO, respectively. […] The methods used for these experiments are described in Example 1.

[1] = tested on: Capture Control SMO oligo; experiment: ELOSA competition with Control SMO capture oligonucleotide and HRP-Control SMO; format: binding; conditions: test oligo 5 pmoles; HRP-Control SMO 1 pmole; Capture Control SMO 5 pmoles
Method: as §1, with “The capture reagent (2 picomoles/well) was incubated in 100 μl 0.05M phosphate (pH 8.5) —1 mM EDTA at 4° C. for 24 h or longer.” left out
as §2
as §3, with “Incubations were in a total final volume of 100 μl in 0.05M TrisHCl (pH 7.5)—1 mM EDTA, with Test oligo (variable doses up to 1 pmole), constant HRP-Oligo (0.5-1 pmole), and a total serum volume of 10 to 25 μl.” left out
as §4, with “A450. […]” for “A450.”

[2] = tested on: prolactin receptor (PRLR); conditions: treatment with PRLR SMO; cited from earlier work
[3] = tested on: orthotopic models of breast cancer; conditions: cited from earlier work

Substance	hybridization to Capture PRLR SMO / displacement of HRP-PRLR SMO (absorbance) (Capture PRLR SMO oligo)	competition with HRP-Control SMO for binding to the Capture Control SMO [1]	sensitivity of the assay (Capture PRLR SMO oligo; Capture PRLR SMO 2 pmoles, HRP-PRLR-SMO 0.5 pmole, presence of serum)	competition easily detected above (Capture PRLR SMO oligo; capture reagent 2 pmoles, HRP-PRLR SMO in the 0.5 pmole range, presence of serum)	effect on PRLR splice forms [2]	tolerability ([3]; in vivo)	reduction in metastatic spread ([3]; two orthotopic models of breast cancer)
5′-AAAAAAGACGAGATTCGATCGGAGTAAAA-3′ (SEQ ID NO: 1) (all phosphorodiamidate morpholino (PMO); vivo-morpholino: octaguanidine derivatization attached, position not given here) [Control SMO, reference compound]	did not hybridize	competed	–	–	–	–	–
5′-AAAAAGCCCTTCTATTGAAACACAGATACAAAA-3′ (SEQ ID NO: 4) (all phosphorodiamidate morpholino (PMO); vivo-morpholino: octaguanidine derivatization attached, position not given here; listed as Mus sp.) [Antimaia, vivo-morpholino splice-modulating oligomer for the prolactin receptor, phosphorodiamidate morpholino backbone and octaguanidine derivatizations]	displaced HRP-PRLR SMO	essentially no effect	0.25 pmol	above 0.2 pmoles	loss of the growth-promoting PRLR without loss of the growth-inhibiting splice form of the PRLR	well-tolerated	80%
